Measured values from the NIST ThermoML archive (doi:10.1021/je9006713).
Where “and” joins values, the source holds several entries; their conditions need not be identical. Equal values may be shown once.

Test: mn = molality of the nth substance listed, in mol/kg
Details: Liquid, glass piezometer

[I-].[NH4+] [ammonium iodide] + N
mass density
Details | 303.15 K | 313.15 K | 323.15 K | 333.15 K | 343.15 K | 353.15 K | 363.15 K | 373.15 K
10000 kPa, m1 = 0.867 | 698.2 kg/m3 | 683.7 kg/m3 | 668.4 kg/m3 | 650.5 kg/m3 | 632.1 kg/m3 | 615.5 kg/m3 | 593.9 kg/m3 | 579.5 kg/m3
10000 kPa, m1 = 1.827 | 777.3 kg/m3 | 762.9 kg/m3 | 748.7 kg/m3 | 732.5 kg/m3 | 716.4 kg/m3 | 700.1 kg/m3 | 680.1 kg/m3 | 666.9 kg/m3
10000 kPa, m1 = 3.103 | 870.7 kg/m3 | 857.4 kg/m3 | 844.3 kg/m3 | 829.3 kg/m3 | 814.6 kg/m3 | 797.7 kg/m3 | 780.9 kg/m3 | 768.1 kg/m3
10000 kPa, m1 = 4.856 | 988.2 kg/m3 | 974.7 kg/m3 | 960.5 kg/m3 | 947.6 kg/m3 | 933.1 kg/m3 | 917.8 kg/m3 | 903.2 kg/m3 | 889.8 kg/m3
10000 kPa, m1 = 7.271 | 1109 kg/m3 | 1097.5 kg/m3 | 1085.9 kg/m3 | 1075.9 kg/m3 | 1062.2 kg/m3 | 1049.9 kg/m3 | 1037.1 kg/m3 | 1026.1 kg/m3
10000 kPa, m1 = 11.18 | 1234 kg/m3 | 1222.9 kg/m3 | 1212.3 kg/m3 | 1199.8 kg/m3 | 1188.9 kg/m3 | 1177.9 kg/m3 | 1166.7 kg/m3 | 1155.3 kg/m3
10000 kPa, m1 = 16.46 | 1329.5 kg/m3 | 1322 kg/m3 | 1312 kg/m3 | 1302.5 kg/m3 | 1293.1 kg/m3 | 1284.9 kg/m3 | 1274.7 kg/m3 | 1265.9 kg/m3
15000 kPa, m1 = 0.867 | 702.3 kg/m3 | 688 kg/m3 | 672.8 kg/m3 | 655.7 kg/m3 | 638 kg/m3 | 621.8 kg/m3 | 601.7 kg/m3 | 587.3 kg/m3
15000 kPa, m1 = 1.827 | 780.7 kg/m3 | 766.9 kg/m3 | 752.7 kg/m3 | 737 kg/m3 | 721.7 kg/m3 | 705.7 kg/m3 | 687.2 kg/m3 | 674 kg/m3
15000 kPa, m1 = 3.103 | 874.3 kg/m3 | 861.1 kg/m3 | 848.1 kg/m3 | 833.5 kg/m3 | 818.9 kg/m3 | 803 kg/m3 | 786.3 kg/m3 | 773.7 kg/m3
15000 kPa, m1 = 4.856 | 992.3 kg/m3 | 978.5 kg/m3 | 964.8 kg/m3 | 951.7 kg/m3 | 937.1 kg/m3 | 922.1 kg/m3 | 907.9 kg/m3 | 894.4 kg/m3
15000 kPa, m1 = 7.271 | 1112.4 kg/m3 | 1100.9 kg/m3 | 1089.2 kg/m3 | 1078.8 kg/m3 | 1065.7 kg/m3 | 1053.5 kg/m3 | 1040.7 kg/m3 | 1029.7 kg/m3
15000 kPa, m1 = 11.18 | 1236.7 kg/m3 | 1225.9 kg/m3 | 1214.9 kg/m3 | 1202.6 kg/m3 | 1192.1 kg/m3 | 1181 kg/m3 | 1169.8 kg/m3 | 1158.5 kg/m3
15000 kPa, m1 = 16.46 | 1332.2 kg/m3 | 1323.9 kg/m3 | 1314.6 kg/m3 | 1305 kg/m3 | 1296 kg/m3 | 1287.4 kg/m3 | 1277.2 kg/m3 | 1268.6 kg/m3
20000 kPa, m1 = 0.867 | 706.3 kg/m3 | 691.9 kg/m3 | 677 kg/m3 | 660.8 kg/m3 | 643.7 kg/m3 | 627.9 kg/m3 | 609.6 kg/m3 | 595.1 kg/m3
20000 kPa, m1 = 1.827 | 783.9 kg/m3 | 770.7 kg/m3 | 756.8 kg/m3 | 741.3 kg/m3 | 726.9 kg/m3 | 711.2 kg/m3 | 694.2 kg/m3 | 681 kg/m3
20000 kPa, m1 = 3.103 | 877.8 kg/m3 | 864.6 kg/m3 | 852 kg/m3 | 837.7 kg/m3 | 823.2 kg/m3 | 808.3 kg/m3 | 791.7 kg/m3 | 779.4 kg/m3
20000 kPa, m1 = 4.856 | 996.2 kg/m3 | 982.3 kg/m3 | 969 kg/m3 | 955.5 kg/m3 | 941.1 kg/m3 | 926.5 kg/m3 | 912.5 kg/m3 | 898.9 kg/m3
20000 kPa, m1 = 7.271 | 1115.2 kg/m3 | 1103.9 kg/m3 | 1092.5 kg/m3 | 1081.7 kg/m3 | 1069.2 kg/m3 | 1056.9 kg/m3 | 1044.1 kg/m3 | 1033.2 kg/m3
20000 kPa, m1 = 11.18 | 1238.9 kg/m3 | 1228.8 kg/m3 | 1217 kg/m3 | 1205.5 kg/m3 | 1194.9 kg/m3 | 1183.7 kg/m3 | 1172.8 kg/m3 | 1161.6 kg/m3
20000 kPa, m1 = 16.46 | 1334.5 kg/m3 | 1326.5 kg/m3 | 1316.8 kg/m3 | 1307.6 kg/m3 | 1298.5 kg/m3 | 1289.9 kg/m3 | 1279.6 kg/m3 | 1271 kg/m3
25000 kPa, m1 = 0.867 | 710.1 kg/m3 | 695.7 kg/m3 | 681.3 kg/m3 | 666 kg/m3 | 649.4 kg/m3 | 634.3 kg/m3 | 617.4 kg/m3 | 603.1 kg/m3
25000 kPa, m1 = 1.827 | 787.4 kg/m3 | 774.7 kg/m3 | 760.7 kg/m3 | 745.9 kg/m3 | 731.9 kg/m3 | 716.6 kg/m3 | 701.2 kg/m3 | 687.8 kg/m3
25000 kPa, m1 = 3.103 | 881.1 kg/m3 | 867.8 kg/m3 | 855.9 kg/m3 | 841.8 kg/m3 | 827.6 kg/m3 | 813.5 kg/m3 | 797.3 kg/m3 | 785.2 kg/m3
25000 kPa, m1 = 4.856 | 999.8 kg/m3 | 986.1 kg/m3 | 973.3 kg/m3 | 959.4 kg/m3 | 945.1 kg/m3 | 931 kg/m3 | 916.8 kg/m3 | 903.4 kg/m3
25000 kPa, m1 = 7.271 | 1118 kg/m3 | 1107.3 kg/m3 | 1095.5 kg/m3 | 1084.6 kg/m3 | 1072.4 kg/m3 | 1060.4 kg/m3 | 1047.4 kg/m3 | 1036.7 kg/m3
25000 kPa, m1 = 11.18 | 1241.2 kg/m3 | 1231.4 kg/m3 | 1219.2 kg/m3 | 1208 kg/m3 | 1197.3 kg/m3 | 1186.5 kg/m3 | 1175.5 kg/m3 | 1164.3 kg/m3
25000 kPa, m1 = 16.46 | 1336.8 kg/m3 | 1329.2 kg/m3 | 1319.4 kg/m3 | 1310.2 kg/m3 | 1301.4 kg/m3 | 1292.4 kg/m3 | 1281.7 kg/m3 | 1273.4 kg/m3
30000 kPa, m1 = 0.867 | 713.7 kg/m3 | 699.6 kg/m3 | 685.5 kg/m3 | 671.3 kg/m3 | 654.8 kg/m3 | 640.4 kg/m3 | 625.2 kg/m3 | 610.8 kg/m3
30000 kPa, m1 = 1.827 | 791 kg/m3 | 778.6 kg/m3 | 764.7 kg/m3 | 749.9 kg/m3 | 737 kg/m3 | 721.9 kg/m3 | 708.4 kg/m3 | 694.7 kg/m3
30000 kPa, m1 = 3.103 | 884.5 kg/m3 | 871.3 kg/m3 | 859.8 kg/m3 | 845.6 kg/m3 | 831.8 kg/m3 | 818.7 kg/m3 | 802.8 kg/m3 | 790.9 kg/m3
30000 kPa, m1 = 4.856 | 1003.5 kg/m3 | 989.9 kg/m3 | 977.3 kg/m3 | 963.1 kg/m3 | 949.2 kg/m3 | 935.2 kg/m3 | 921.1 kg/m3 | 907.8 kg/m3
30000 kPa, m1 = 7.271 | 1120.4 kg/m3 | 1110.4 kg/m3 | 1098.5 kg/m3 | 1087.3 kg/m3 | 1075.2 kg/m3 | 1063.5 kg/m3 | 1050.5 kg/m3 | 1039.9 kg/m3
30000 kPa, m1 = 11.18 | 1243.5 kg/m3 | 1233.7 kg/m3 | 1221.4 kg/m3 | 1210.2 kg/m3 | 1199.8 kg/m3 | 1188.9 kg/m3 | 1177.9 kg/m3 | 1166.8 kg/m3
30000 kPa, m1 = 16.46 | – | 1338.7 kg/m3 and 1331.4 kg/m3 | 1321.6 kg/m3 | 1312.4 kg/m3 | 1303.9 kg/m3 | 1294.5 kg/m3 | 1283.9 kg/m3 | 1275.8 kg/m3
